{
  "source": "patent EP0974353A2",
  "about": "“The use of homocysteine derivatives for the preparation of medicaments inhibiting bacterial adhesiveness” (EDMOND PHARMA S.R.L., priority 1998, dated 2000)",
  "key": {"bacterial adhesiveness": {"system": "bacterial adhesiveness", "assay": "Inhibition of bacterial adhesiveness, bacterium not specified", "assay_type": "cell-based", "conditions": "bacterium and concentration not given; general statement", "method": "(§1) Said procedures consist in incubating the active substance with bacteria in order to interfere with their adhesiveness mechanism and subsequently adding mucosa cells, observing the obtained result.\n(§2) Human epithelial cells were collected from buccal and palatal mucosa of healthy volunteers by a sterile spatula, subsequently immersed in 2 ml of physiological saline buffered with phosphate buffer, combining then the suspensions from different volunteers.\n(§3) Tests were carried out with three different E. coli strains, ATCC 25922 strain and two others isolated from human urinary infections, as well as with three S. aureus strains, ATCC 25923 strain and two others from human respiratory infections, using concentrations of 1.25, 2.5, 5 and 10 mcg/ ml for each tested compound."}, "[1]": {"system": "S. aureus strains, ATCC 25923 strain and two others from human respiratory infections", "assay": "Inhibition of bacterial adhesiveness to human buccal/palatal epithelial cells, S. aureus", "assay_type": "cell-based", "method": "as §1, §2, §3"}, "[2]": {"conditions": "rank among the erdosteine metabolites; from R. Scuri et al.; cited from earlier work"}, "[3]": {"system": "E. coli strains, ATCC 25922 strain and two others isolated from human urinary infections", "assay": "Inhibition of bacterial adhesiveness to human buccal/palatal epithelial cells, E. coli", "assay_type": "cell-based", "conditions": "three E. coli strains; for inhibitory activity on adhesiveness: even at the maximum tested concentration (10 mcg/ml)", "method": "as §1, §2, §3"}},
  "note": "Entries after “also recorded” stand apart in the source; their conditions may differ.",
  "data": [
    {"smiles": "O=C(O)CSCC(=O)NC1CCSC1=O", "note": "(stereo not shown) [erdosteine, N-(thiodiglycoyl)homocysteine gamma-thiolactone]", "values": [
      {"measurement": "inhibition of bacterial adhesiveness", "setting": "bacterial adhesiveness", "value": "not inhibited in a statistically significant way; also recorded: almost devoid of such an activity"}
    ]},
    {"smiles": "O=C(O)CSCC(=O)NC(CCS)C(=O)O", "note": "(stereo not shown) [compound (A), N-(Thiodiglycoyl)homocysteine]", "values": [
      {"measurement": "inhibition of bacterial adhesiveness", "setting": "bacterial adhesiveness", "value": "remarkable inhibitory activity"},
      {"measurement": "reduction of S. aureus adhesiveness to epithelial cells", "setting": "[1]; at concentrations of 2.5 to 10 mcg/ml", "value": "significant reduction"},
      {"measurement": "mucolytic activity", "setting": "[2]", "value": "lowest mucolytic activity"},
      {"measurement": "inhibitory activity of bacterial adhesiveness", "setting": "[3]; already at a concentration of 2.5 mcg/ml, compared with the control (bacteria with no tested compound)", "value": "significant inhibitory activity"}
    ]},
    {"smiles": "CC(=O)N[C@@H](CCS)C(=O)O", "note": "[N-acetylhomocysteine]", "values": [
      {"measurement": "inhibitory activity on adhesiveness", "setting": "[3]", "value": "no inhibitory activity"}
    ]},
    {"smiles": "N[C@@H](CCS)C(=O)O", "note": "[homocysteine]", "values": [
      {"measurement": "inhibitory activity on adhesiveness, difference compared with the control test", "setting": "[3]; concentration not stated (tested 1.25, 2.5, 5 and 10 mcg/ml)", "value": "some difference, which however was not statistically significant"}
    ]},
    {"smiles": "CC(=O)N[C@@H](CS)C(=O)O", "note": "[N-acetylcysteine]", "values": [
      {"measurement": "inhibition of bacterial adhesiveness", "setting": "bacterial adhesiveness", "value": "much less active, or even inactive"},
      {"measurement": "activity in reducing bacterial adhesiveness", "setting": "[1]; incubation with S. aureus, concentration not stated (tested 1.25, 2.5, 5 and 10 mcg/ml)", "value": "no specific activity"},
      {"measurement": "inhibitory activity on adhesiveness", "setting": "[3]", "value": "no inhibitory activity"}
    ]}
  ]
}
